Measurements reported in PubChem BioAssay AID588384 (NMMLSC, 2011).
The source made the active and inactive calls.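 Rule for the calls: active = half-maximal concentration at most 10 µM and% response shifting at least 30 points across doses; inactive = the rest.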

These compounds were tested against Cell division control protein 42 homolog (Homo sapiens) (UniProt P60953) (assay: constitutively active Cdc42 guanine nucleotide binding blockers – biochemical, activated mutant, bead multiplex, flow cytometry, round 1, selectivity assay for Rab7 inhibitor project, SAR follow-up (AID 588384)). Conditions: GST-Cdc42 act beads, fluorescent GTP binding.
Sequence of Cell division control protein 42 homolog (Homo sapiens) (P60953 whole entry, looked up): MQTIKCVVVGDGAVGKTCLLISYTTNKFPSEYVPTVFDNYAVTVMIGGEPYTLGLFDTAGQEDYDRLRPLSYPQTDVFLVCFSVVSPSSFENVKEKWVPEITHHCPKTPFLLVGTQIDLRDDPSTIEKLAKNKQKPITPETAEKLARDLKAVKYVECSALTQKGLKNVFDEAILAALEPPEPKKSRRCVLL
For CC1(C)Cc2c(sc(NC(=S)NC(=O)c3ccccc3F)c2C(=O)O)CO1, the EC50 was 51 nM.
For CC1(C)Cc2c(sc(NC(=S)NC(=O)c3ccccc3Br)c2C(=O)O)CO1, the EC50 was 54 nM.
For O=C(NC(=S)Nc1sc2c(c1C(=O)O)CCOC2)c1ccccc1, the EC50 was 44 nM.
In the case of CC1(C)Cc2c(sc(NC(=S)NC(=O)c3cccc(Br)c3)c2C(=O)O)CO1, the EC50 is reported as 5690 nM.
In the case of CC1(C)Cc2c(sc(NC(=O)NC(=O)c3ccccc3)c2C(=O)O)CO1, the EC50 is reported as 468 nM.
COc1ccc(C(=O)NC(=S)Nc2sc3c(c2C(=O)O)CC(C)(C)OC3)cc1 showed an EC50 of 204 nM.
Work on CC1(C)CCc2sc(NC(=S)NC(=O)c3ccccc3)c(C(=O)O)c2C1 yielded an EC50 of 108 nM.
COc1cccc(C(=O)NC(=S)Nc2sc3c(c2C(=O)O)CC(C)(C)OC3)c1 showed an EC50 of 54 nM.
Work on CC1(C)Cc2c(sc(NC(=S)NC(=O)c3ccc(Br)cc3)c2C(=O)O)CO1 yielded an EC50 of 289 nM.
With CC1Cc2c(sc(NC(=S)NC(=O)c3ccccc3)c2C(=O)O)CO1 (stereo unspecified) the EC50 was 90 nM.
With CC1(C)Cc2c(sc(NC(=S)NC(=O)c3cccc(F)c3)c2C(=O)O)CO1 the EC50 was 326 nM.

Same assay, conditions: GST-Cdc42 act beads, fluorescent GTP binding, at 100 µM (top of the series)
For CCOC(=O)c1c(N)sc2ccccc12, the “% response (lower = inhibition)” value was “inactive”.
For CN1CCc2c(sc(NC(=O)Nc3ccc(F)cc3)c2C(=O)O)C1, the “% response (lower = inhibition)” value was “inactive”.
In the case of Cc1ccc(Nc2nc3sc4c(c3c(=O)o2)CCN(C)C4)cc1, the “% response (lower = inhibition)” value is reported as “inactive”.
For CC1(C)Cc2c(sc(NC(=S)Nc3ccccc3)c2C(=O)O)CO1, the “% response (lower = inhibition)” value was “inactive”.
In the case of CCOC(=O)c1c(NC(=O)NC(C)(C)C)sc2c1CCN(C)C2, the “% response (lower = inhibition)” value is reported as “inactive”.
With Cc1ccc(NC(=O)Nc2sc3c(c2C(=O)O)CCN(C)C3)cc1 the “% response (lower = inhibition)” value was “inactive”.
With CC1(C)Cc2c(sc(NC(=O)Cc3ccccc3)c2C(=O)O)CO1 the “% response (lower = inhibition)” value was “inactive”.
For CC(C)(C)OC(=O)c1c(NC(=S)NC(=O)c2ccccc2)sc2c1CCOC2, the “% response (lower = inhibition)” value was “inactive”.
In the case of COC(=O)c1c(N)sc2c1CC(C)(C)OC2, the “% response (lower = inhibition)” value is reported as “inactive”.
With COC(=O)c1c(NC(=S)NC(=O)c2ccccc2)sc2c1CC(C)(C)OC2 the “% response (lower = inhibition)” value was “inactive”.
In the case of CCOC(=O)c1c(NC(=S)Nc2ccccc2)sc2c1CC(C)(C)OC2, the “% response (lower = inhibition)” value is reported as “inactive”.
For CCOC(=O)c1c(NC(=O)Nc2ccc(F)cc2)sc2c1CCN(C)C2, the “% response (lower = inhibition)” value was “inactive”.
With CCOC(=O)c1c(NC(=S)NC(=O)c2ccccc2)sc2ccccc12 the “% response (lower = inhibition)” value was “inactive”.
With CN1CCc2c(sc3nc(Nc4ccc(F)cc4)oc(=O)c23)C1 the “% response (lower = inhibition)” value was “inactive”.
In the case of CCOC(=O)c1c(NC(=O)Nc2ccc(C)cc2)sc2c1CCN(C)C2, the “% response (lower = inhibition)” value is reported as “inactive”.
